From ChEMBL document CHEMBL2073893, “BBB transport and P-glycoprotein functionality using MDR1A (-/-) and wild-type mice. Total brain versus microdialysis concentration profiles of rhodamine-123” (Pharm Res, 1998)

Target: ATP-dependent translocase ABCB1 (Mus musculus, UniProt P21447)
Test: TP_TRANSPORTER: increase in brain concentration in mdr1a(-/-) mouse
Assay type: functional, organism-based
Details: in vivo

ATP-dependent translocase ABCB1, sequence (P21447 whole entry): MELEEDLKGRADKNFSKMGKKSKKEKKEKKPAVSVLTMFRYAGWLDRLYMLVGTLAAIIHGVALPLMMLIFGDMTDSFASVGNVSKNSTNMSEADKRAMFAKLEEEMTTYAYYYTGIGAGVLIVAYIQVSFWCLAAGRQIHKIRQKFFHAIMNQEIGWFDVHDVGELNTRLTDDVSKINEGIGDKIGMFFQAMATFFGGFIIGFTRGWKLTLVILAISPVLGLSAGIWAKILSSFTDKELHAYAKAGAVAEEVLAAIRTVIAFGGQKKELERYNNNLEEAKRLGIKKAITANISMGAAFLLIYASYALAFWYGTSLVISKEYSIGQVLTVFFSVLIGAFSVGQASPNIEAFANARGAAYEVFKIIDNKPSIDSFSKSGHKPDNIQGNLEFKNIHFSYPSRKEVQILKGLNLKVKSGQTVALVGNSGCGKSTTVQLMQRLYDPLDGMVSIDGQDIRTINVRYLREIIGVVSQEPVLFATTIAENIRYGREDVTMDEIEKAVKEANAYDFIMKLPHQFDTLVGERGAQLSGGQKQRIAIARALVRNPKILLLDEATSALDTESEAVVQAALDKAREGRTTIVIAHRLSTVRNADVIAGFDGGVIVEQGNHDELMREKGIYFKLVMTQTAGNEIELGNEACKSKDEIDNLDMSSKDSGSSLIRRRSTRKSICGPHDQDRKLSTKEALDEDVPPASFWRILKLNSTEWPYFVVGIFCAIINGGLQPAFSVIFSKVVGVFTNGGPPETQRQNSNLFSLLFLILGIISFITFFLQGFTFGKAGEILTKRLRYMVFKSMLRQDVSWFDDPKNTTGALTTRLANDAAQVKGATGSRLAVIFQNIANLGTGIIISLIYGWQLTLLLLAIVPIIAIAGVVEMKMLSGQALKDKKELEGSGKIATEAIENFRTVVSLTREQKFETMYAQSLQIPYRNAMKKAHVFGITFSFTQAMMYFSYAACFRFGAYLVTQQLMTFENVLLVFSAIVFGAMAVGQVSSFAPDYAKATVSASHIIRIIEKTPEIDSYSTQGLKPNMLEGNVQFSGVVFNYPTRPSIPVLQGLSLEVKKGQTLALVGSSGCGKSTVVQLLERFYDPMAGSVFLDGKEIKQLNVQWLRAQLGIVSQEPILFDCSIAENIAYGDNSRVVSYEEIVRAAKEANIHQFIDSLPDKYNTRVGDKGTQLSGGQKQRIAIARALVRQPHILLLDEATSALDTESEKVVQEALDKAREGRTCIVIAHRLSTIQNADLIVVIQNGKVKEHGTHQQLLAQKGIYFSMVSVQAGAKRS

In the case of `COC(=O)c1ccccc1-c1c2ccc(=N)cc-2oc2cc(N)ccc12.Cl` [RHODAMINE123], the Activity is reported as “substrate [+]”.
